Source: patent publication US8916592B2, “Malononitrile compounds” (Merial Limited, priority 2005, dated 2014)

What was measured:
Type in all cases: in vivo
[1] = system: Mediterranean Fruitfly (Ceratitis capitata); test: Activity against Mediterranean Fruitfly (eggs sprayed in microtiterplates); details: 144 h, 6 days, untreated controls 0% mortality
Description: The active compounds were formulated in 1:3 DMSO:water. 50 to 80 eggs were placed into microtiterplates filled with 0.5% agar-agar and 14% diet in water. The eggs were sprayed with 5 μl of the test solution, the plates were sealed with pierced foils and kept at 27-29° C. and 75-85% humidity under fluorescent light for 6 days. Mortality was assessed on the baswas of the agility of the hatched larvae. Tests were replicated 2 times.

[2] = system: Boll Weevil (Anthonomus grandis); test: Activity against Boll Weevil (eggs sprayed in microtiterplates); details: 3 to 5 days, untreated controls 0% mortality
Description: The active compounds were formulated in 1:3 DMSO:water. 10 to 15 eggs were placed into microtiterplates filled with 2% agar-agar in water and 300 ppm formaline. The eggs were sprayed with 20 μl of the test solution, the plates were sealed with pierced foils and kept at 24-26° C. and 75-85% humidity with a day/night cycle for 3 to 5 days. Mortality was assessed on the basis of the remaining unhatched eggs or larvae on the agar surface and/or quantity and depth of the digging channels caused by the hatched larvae. Tests were replicated 2 times.

[3] = system: Vetch Aphid (Megoura viciae); test: Activity against Vetch Aphid (sprayed bean leaf disks); details: foliar, 144 h, adult aphids, 6 days, untreated controls 0% mortality
Description: The active compounds were formulated in 1:3 DMSO:water. Bean leaf disks were placed into microtiterplates filled with 0.8% agar-agar and 2.5 ppm OPUS™. The leaf disks were sprayed with 2.5 μl of the test solution and 5 to 8 adult aphids were placed into the microtiterplates which were then closed and kept at 22-24° C. and 35-45% under fluorescent light for 6 days. Mortality was assessed on the basis of vital, reproduced aphids. Tests were replicated 2 times.

[4] = system: Brown Planthopper (Nilaparvata lugens); test: Activity against Brown Planthopper (sprayed rice seedlings); details: 300 ppm, 10 adults, recorded after 24, 72 and 120 hours
Description: The active compounds were formulated in 50:50 acetone:water. Potted rice seedlings were sprayed with 10 ml test solution, air dried, placed in cages and inoculated with 10 adults. Percent mortality was recorded after 24, 72 and 120 hours.

Row | Compound | mortality at 2500 ppm [1] | mortality at 2500 ppm [2] | mortality at 2500 ppm [3] | mortality [4]
1 | N#CC(C#N)(CSC(F)(F)F)Cc1ccc(Cl)c(Cl)c1 [Compound I-1, 2-(3,4-dichloro-benzyl)-2-trifluoromethylsulfanylmethyl-malononitrile] | > 75% | > 75% | – | –
2 | N#CC(C#N)(CCSC(F)(F)F)Cc1ccc(Cl)c(Cl)c1 [Compound I-7, 2-(3,4-Dichloro-benzyl)-2-(2-trifluoromethylsulfanyl-ethyl)-malononitrile] | > 75% | > 75% | > 75% | –
3 | N#CC(C#N)(CC[S+]([O-])C(F)(F)F)Cc1ccc(Cl)c(Cl)c1 (stereo not shown) [Compound I-15, 2-(3,4-Dichlorobenzyl)-2-(2-trifluoromethanesulfinyl-ethyl)-malononitrile] | > 75% | > 75% | – | –
4 | N#CC(C#N)(CCS(=O)(=O)C(F)(F)F)Cc1ccc(Cl)c(Cl)c1 [Compound I-19, 2-(3,4-Dichlorobenzyl)-2-(2-trifluoromethanesulfonyl-ethyl)-malononitrile] | > 75% | > 75% | – | –
5 | CC(C)(C)c1cc(CC(C#N)(C#N)CCSC(F)(F)F)on1 [Compound I-35] | – | – | – | over 90%
